From ChEMBL document CHEMBL1153647, “Inhibitors of human leukocyte elastase. 3.1 inhibition by tetrahydrobenzisothiazolinylmethyl aryl carboxylates” (Bioorg Med Chem Lett, 1995) come the findings set out here.

Structures are written as SMILES.

The target of assay [1] is T1, Neutrophil elastase (Homo sapiens) (UniProt P08246).
T1 sequence (whole entry): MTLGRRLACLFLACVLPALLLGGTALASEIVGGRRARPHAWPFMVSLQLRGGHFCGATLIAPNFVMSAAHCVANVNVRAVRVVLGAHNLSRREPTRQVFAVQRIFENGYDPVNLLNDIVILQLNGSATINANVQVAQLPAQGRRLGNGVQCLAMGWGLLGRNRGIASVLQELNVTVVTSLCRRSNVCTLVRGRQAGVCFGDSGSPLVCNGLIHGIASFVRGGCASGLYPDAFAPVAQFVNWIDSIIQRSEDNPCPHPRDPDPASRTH
Description: (§1) Compound was evaluated for the inhibitory activity against Human leukocyte elastase (HLE)

Assay [2] addresses T1, Neutrophil elastase (Homo sapiens). This is another data set of the same source.
Description: as §1
Assay [3] concerns the target T2, Neutrophil elastase (Homo sapiens, UniProt P08246).
T2 sequence (P08246 whole entry): T1 sequence (whole entry)
Briefly: Ratio of Kreact to that of Kinact was determined on human leukocyte elastase(HLE).

For assay [4], the target named is T2, Neutrophil elastase. Briefly: Observed binding affinity against Human leukocyte elastase (HLE).
Assay [5] has as its target T1, Neutrophil elastase (Homo sapiens). The assay is described as follows: Compound was evaluated for the inhibitory activity against Human leukocyte elastase.

In the case of `CCC1CCCC2=C1C(=O)N(COC(=O)c1c(Cl)cccc1Cl)S2(=O)=O` (stereo not drawn), in assay [1], the Kreact turned out to be 5.8e-05 s⁻¹. For the same molecule, the K inact in assay [2] was found to be 83000 M⁻¹ s⁻¹. The Ki was 0.7 nM on Neutrophil elastase [3] and 0.708 nM on Neutrophil elastase [4].
The matching figures for `CC(C)C1CCCC2=C1C(=O)N(COC(=O)c1c(Cl)cccc1Cl)S2(=O)=O` (stereo not drawn): 1e-05 s⁻¹, 10000 M⁻¹ s⁻¹, 1 nM and 1 nM.
Consider `O=C(OCN1C(=O)C2=C(CCCCC2)S1(=O)=O)c1c(Cl)cccc1Cl`, for which the Ki at Neutrophil elastase [3] was 100 nM.
For `O=C(OCN1C(=O)C2=C(CCCC2)S1(=O)=O)c1c(Cl)cccc1Cl`, in assay [5], the K inact amounted to 3300 M⁻¹ s⁻¹ and the Kreact was 5.9e-05 s⁻¹.
In assay [1], `CC(C)c1cccc2c1C(=O)N(COC(=O)c1c(Cl)cccc1Cl)S2(=O)=O` showed a Kreact of 2.7e-05 s⁻¹. In addition, the K inact in assay [2] came to 900000 M⁻¹ s⁻¹.
For the molecule `O=C(OCN1C(=O)C2=C(C3CCC2C3)S1(=O)=O)c1c(Cl)cccc1Cl` (stereo not drawn), on Neutrophil elastase [3], the Ki turned out to be 0.8 nM.
Molecule `CCc1cccc2c1C(=O)N(COC(=O)c1c(Cl)cccc1Cl)S2(=O)=O` showed a Ki on Neutrophil elastase [4] of 0.0708 nM.
In turn, `CC1(C)CCCC2=C1C(=O)N(COC(=O)c1c(Cl)cccc1Cl)S2(=O)=O` displayed a Kreact in assay [1] of 1.8e-05 s⁻¹. The K inact in assay [2] came to 18500 M⁻¹ s⁻¹. For the same molecule, the Ki at Neutrophil elastase [3] turned out to be 1 nM.
With `O=C(OCN1C(=O)C2=C(CCC2)S1(=O)=O)c1c(Cl)cccc1Cl`, the Ki on Neutrophil elastase [3] is 5 nM.
`CC1CCCC2=C1C(=O)N(COC(=O)c1c(Cl)cccc1Cl)S2(=O)=O` (stereo not drawn) came in with a Kreact in assay [1] of 3.6e-05 s⁻¹. In assay [2], this molecule had a K inact of 36000 M⁻¹ s⁻¹. Further, the Ki at Neutrophil elastase [3] and on Neutrophil elastase [4] was 1 nM throughout.

For orientation: Ki means a dissociation constant, usually derived from enzyme kinetics or from competition with a known ligand.
